Laboratory results reported in PubChem BioAssay AID330 (DTP/NCI, 2004).
Several values for one entry are separate records, joined by “and”; a condition that tells them apart may be missing. Equal entries are not always repeated. Inconclusive results and toxic doses are left out.

Test system: P388 leukemia ip, CD2F1 mice, survival T/C
Assay: NCI In Vivo Anticancer Drug Screen. Data for tumor model P388 Leukemia (intraperitoneal) in CD2F1 (CDF1) mice
Conditions: endpoint: median survival time, higher = longer survival
In short: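 Mice carrying the transplanted tumor received test compound or vehicle. Survival was recorded in each group, and the value is the treated-group measurement divided by that of the vehicle-treated control group.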

[1] = dose: 12.5 mg/kg/injection, schedule: Q01DX009 (ip), vehicle: saline
[2] = dose: 25.0 mg/kg/injection, schedule: Q01DX009 (ip), vehicle: saline
[3] = dose: 50.0 mg/kg/injection, schedule: Q01DX009 (ip), vehicle: saline
[4] = dose: 50.0 mg/kg/injection, schedule: Q01DX009 (ip), vehicle: saline with Tween-80

## Cc1cc(=O)n2c(-c3ccc(Cl)cc3)csc2n1
dose: 25.0 mg/kg/injection, schedule: Q04DX002 (ip), vehicle: Klucel (hydroxypropylcellulose) (HPC)
  T/C: 90 % of control
dose: 50.0 mg/kg/injection, schedule: Q04DX002 (ip), vehicle: Klucel (hydroxypropylcellulose) (HPC)
  T/C: 101 % of control
dose: 100.0 mg/kg/injection, schedule: Q04DX002 (ip), vehicle: Klucel (hydroxypropylcellulose) (HPC)
  T/C: 102 % of control

## CCOC(OCC)C(N)=O
dose: 50.0 mg/kg/injection, schedule: Q01DX005 (ip), vehicle: saline with Tween-80
  T/C: 105 % of control
dose: 100.0 mg/kg/injection, schedule: Q01DX005 (ip), vehicle: saline with Tween-80
  T/C: 109 % of control
dose: 200.0 mg/kg/injection, schedule: Q01DX005 (ip), vehicle: saline with Tween-80
  T/C: 100 % of control

## Cc1ccc(NC(=O)CCCC(=O)C(C#N)c2ccccc2Cl)cc1C (stereo not drawn)
dose: 60.0 mg/kg/injection, schedule: Q01DX005 (ip), vehicle: saline with Tween-80
  T/C: 102 % of control
dose: 120.0 mg/kg/injection, schedule: Q01DX005 (ip), vehicle: saline with Tween-80
  T/C: 108 % of control
dose: 240.0 mg/kg/injection, schedule: Q01DX005 (ip), vehicle: saline with Tween-80
  T/C: 101 % of control

## COc1ccc(Br)cc1-c1cc2cccc[n+]2o1
[1]
  T/C: 101 % of control
[2]
  T/C: 109 % of control

## CCCCCCCCCCn1cc[nH]c1=S
dose: 25.0 mg/kg/injection, schedule: Q01DX005 (ip), vehicle: Klucel (hydroxypropylcellulose) (HPC)
  T/C: 103 % of control
dose: 50.0 mg/kg/injection, schedule: Q01DX005 (ip), vehicle: Klucel (hydroxypropylcellulose) (HPC)
  T/C: 107 % of control and 115 % of control
dose: 100.0 mg/kg/injection, schedule: Q01DX005 (ip), vehicle: Klucel (hydroxypropylcellulose) (HPC)
  T/C: 105 % of control and 112 % of control
dose: 200.0 mg/kg/injection, schedule: Q01DX005 (ip), vehicle: Klucel (hydroxypropylcellulose) (HPC)
  T/C: 117 % of control

## CC(/C=N\N=C(N)N)=N/NC(N)=O
[3]
  T/C: 92 % of control
dose: 100.0 mg/kg/injection, schedule: Q01DX009 (ip), vehicle: saline
  T/C: 108 % of control
dose: 200.0 mg/kg/injection, schedule: Q01DX009 (ip), vehicle: saline
  T/C: 115 % of control

## C=C1C(=O)OC2/C=C(\C)CC/C=C(/C=O)CC(OC(=O)C(C)C)C12 (stereo not drawn)
dose: 5.0 mg/kg/injection, schedule: Q01DX009 (ip), vehicle: other
  T/C: 100 % of control
dose: 10.0 mg/kg/injection, schedule: Q01DX009 (ip), vehicle: other
  T/C: 91 % of control
dose: 20.0 mg/kg/injection, schedule: Q01DX009 (ip), vehicle: other
  T/C: 112 % of control

## O=C(O)c1ccc(N=Nc2ccc(N(CCCl)CCCl)cc2C(=O)O)cc1
dose: 50.0 mg/kg/injection, schedule: Q01DX001 (ip), vehicle: Klucel (hydroxypropylcellulose) (HPC)
  T/C: 100 % of control
dose: 100.0 mg/kg/injection, schedule: Q01DX001 (ip), vehicle: Klucel (hydroxypropylcellulose) (HPC)
  T/C: 107 % of control

## NC(=S)N/N=C\c1nccc2c(N)cccc12
dose: 3.13 mg/kg/injection, schedule: Q01DX009 (ip), vehicle: saline
  T/C: 161 % of control
dose: 6.25 mg/kg/injection, schedule: Q01DX009 (ip), vehicle: saline with Tween-80
  T/C: 153 % of control
dose: 6.25 mg/kg/injection, schedule: Q01DX009 (ip), vehicle: saline
  T/C: 161 % of control
dose: 12.5 mg/kg/injection, schedule: Q01DX009 (ip), vehicle: saline with Tween-80
  T/C: 162 % of control
[1]
  T/C: 150 % of control and 166 % of control
dose: 18.8 mg/kg/injection, schedule: Q04DX003 (ip), vehicle: saline
  T/C: 155 % of control
[2]
  T/C: 167 % of control
[4]
  T/C: 152 % of control and 155 % of control
[3]
  T/C: 168 % of control and 181 % of control
dose: 75.0 mg/kg/injection, schedule: Q01DX009 (ip), vehicle: saline with Tween-80
  T/C: 150 % of control
dose: 75.0 mg/kg/injection, schedule: Q04DX003 (ip), vehicle: saline
  T/C: 155 % of control
dose: 150.0 mg/kg/injection, schedule: Q04DX003 (ip), vehicle: saline
  T/C: 172 % of control

## C1COCCOCCNCCOCCOCCN1
dose: 50.0 mg/kg/injection, schedule: Q01DX005 (ip), vehicle: saline
  T/C: 95 % of control
dose: 100.0 mg/kg/injection, schedule: Q01DX005 (ip), vehicle: saline
  T/C: 98 % of control

## CN(C)CCO[Si](C)(C)C[Si](C)(C)OCCN(C)C
dose: 60.0 mg/kg/injection, schedule: Q01DX005 (ip), vehicle: saline
  T/C: 107 % of control
dose: 120.0 mg/kg/injection, schedule: Q01DX005 (ip), vehicle: saline
  T/C: 102 % of control
dose: 240.0 mg/kg/injection, schedule: Q01DX005 (ip), vehicle: saline
  T/C: 108 % of control

## S=c1nc[nH]c2c1ncn2CN1CCCCC1
[4]
  T/C: 118 % of control
dose: 66.0 mg/kg/injection, schedule: Q01DX009 (ip), vehicle: saline sonified
  T/C: 122 % of control
dose: 150.0 mg/kg/injection, schedule: Q01DX009 (ip), vehicle: saline sonified
  T/C: 90 % of control
